{"source": "PubChem BioAssay (NCI)", "experiment_in_all_cases": "NCI tumour cell line growth inhibition, 48 h", "key": {"[1]": {"system": "HCC-2998 colon"}, "[2]": {"system": "SK-OV-3 ovarian"}, "[3]": {"system": "CCRF-CEM leukemia"}, "[4]": {"system": "NCI-H522 lung"}, "[5]": {"system": "SK-MEL-28 melanoma"}, "[6]": {"system": "MDA-MB-435"}, "[7]": {"system": "OVCAR-5 ovarian"}, "[8]": {"system": "NCI-H226 lung"}, "[9]": {"system": "SF-295 CNS"}, "[10]": {"system": "SW-620 colon"}}, "note": "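Where inhibition never reached the appropriate level, the endpoint shown equals the highest concentration tested. Otherwise, values were interpolated linearly from a five-concentration, 48-hour dose response in 96-well plates. Abbreviation: GI50, concentration required for 50% inhibition of growth. TGI: total growth inhibition.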"}
{"smiles": "CCOC(=O)Nc1cc2c(c(N)n1)N=C(c1ccc(Cl)cc1Cl)CN2", "values": [{"measurement": "TGI", "setting": "[1]", "result": 2.6, "unit": "µM"}, {"measurement": "TGI", "setting": "[2]", "result": 23.2, "unit": "µM"}, {"measurement": "TGI", "setting": "[3]", "result": "> 100", "unit": "µM"}, {"measurement": "TGI", "setting": "[4]", "result": 1.08, "unit": "µM"}, {"measurement": "TGI", "setting": "[5]", "result": 29.5, "unit": "µM"}, {"measurement": "TGI", "setting": "[6]", "result": "< 0.0239", "unit": "µM"}, {"measurement": "TGI", "setting": "[7]", "result": 45.1, "unit": "µM"}, {"measurement": "TGI", "setting": "[8]", "result": 18, "unit": "µM"}, {"measurement": "TGI", "setting": "[9]", "result": 0.0108, "unit": "µM"}, {"measurement": "TGI", "setting": "[10]", "result": 30.4, "unit": "µM"}]}
{"smiles": "C=C(CN1CCN(c2cc(C(F)(F)F)cc(C(F)(F)F)c2)CC1)c1ccc(C(=O)Nc2ccccc2N)cc1", "values": [{"measurement": "GI50", "setting": "[1]", "result": 4.28, "unit": "µM"}, {"measurement": "TGI", "setting": "[1]", "result": 26.4, "unit": "µM"}, {"measurement": "GI50", "setting": "[2]", "result": 25.7, "unit": "µM"}, {"measurement": "TGI", "setting": "[2]", "result": "> 100", "unit": "µM"}, {"measurement": "GI50", "setting": "[3]", "result": 1.49, "unit": "µM"}, {"measurement": "TGI", "setting": "[3]", "result": 6.51, "unit": "µM"}, {"measurement": "GI50", "setting": "[4]", "result": 5.21, "unit": "µM"}, {"measurement": "TGI", "setting": "[4]", "result": "> 100", "unit": "µM"}, {"measurement": "GI50", "setting": "[5]", "result": 3.68, "unit": "µM"}, {"measurement": "TGI", "setting": "[5]", "result": 15.9, "unit": "µM"}, {"measurement": "GI50", "setting": "[6]", "result": 1.84, "unit": "µM"}, {"measurement": "TGI", "setting": "[6]", "result": 4.88, "unit": "µM"}, {"measurement": "GI50", "setting": "[7]", "result": 54.6, "unit": "µM"}, {"measurement": "TGI", "setting": "[7]", "result": "> 100", "unit": "µM"}, {"measurement": "GI50", "setting": "[8]", "result": 9.89, "unit": "µM"}, {"measurement": "TGI", "setting": "[8]", "result": "> 100", "unit": "µM"}, {"measurement": "GI50", "setting": "[9]", "result": 7.29, "unit": "µM"}, {"measurement": "TGI", "setting": "[9]", "result": 62, "unit": "µM"}, {"measurement": "GI50", "setting": "[10]", "result": 6.95, "unit": "µM"}, {"measurement": "TGI", "setting": "[10]", "result": 34.9, "unit": "µM"}]}
{"smiles": "Oc1ccccc1/C=N\\NC(=S)Nc1ccc(F)cc1", "values": [{"measurement": "GI50", "setting": "[1]", "result": 3.28, "unit": "µM"}, {"measurement": "TGI", "setting": "[1]", "result": 28.5, "unit": "µM"}, {"measurement": "GI50", "setting": "[2]", "result": 2.11, "unit": "µM"}, {"measurement": "TGI", "setting": "[2]", "result": 76.5, "unit": "µM"}, {"measurement": "GI50", "setting": "[3]", "result": 0.396, "unit": "µM"}, {"measurement": "GI50", "setting": "[4]", "result": 2.16, "unit": "µM"}, {"measurement": "TGI", "setting": "[4]", "result": "> 49.4", "unit": "µM"}, {"measurement": "GI50", "setting": "[5]", "result": 2, "unit": "µM"}, {"measurement": "TGI", "setting": "[5]", "result": "> 100", "unit": "µM"}, {"measurement": "GI50", "setting": "[6]", "result": 0.404, "unit": "µM"}, {"measurement": "TGI", "setting": "[6]", "result": "> 96.6", "unit": "µM"}, {"measurement": "GI50", "setting": "[7]", "result": 4.63, "unit": "µM"}, {"measurement": "TGI", "setting": "[7]", "result": "> 100", "unit": "µM"}, {"measurement": "GI50", "setting": "[8]", "result": 2.76, "unit": "µM"}, {"measurement": "TGI", "setting": "[8]", "result": "> 32.5", "unit": "µM"}, {"measurement": "GI50", "setting": "[9]", "result": 1.38, "unit": "µM"}, {"measurement": "GI50", "setting": "[10]", "result": 1.17, "unit": "µM"}, {"measurement": "TGI", "setting": "[10]", "result": "> 100", "unit": "µM"}]}
{"smiles": "CCOC(=O)c1c(CN2CCCCC2)nc2ccc(Cl)cc2c1-c1ccccc1", "values": [{"measurement": "GI50", "setting": "[1]", "result": 19.1, "unit": "µM"}, {"measurement": "TGI", "setting": "[1]", "result": 35.8, "unit": "µM"}, {"measurement": "GI50", "setting": "[2]", "result": 23.1, "unit": "µM"}, {"measurement": "TGI", "setting": "[2]", "result": 49, "unit": "µM"}, {"measurement": "GI50", "setting": "[3]", "result": 7.6, "unit": "µM"}, {"measurement": "TGI", "setting": "[3]", "result": 36.6, "unit": "µM"}, {"measurement": "GI50", "setting": "[4]", "result": 19.2, "unit": "µM"}, {"measurement": "TGI", "setting": "[4]", "result": 53, "unit": "µM"}, {"measurement": "GI50", "setting": "[5]", "result": 30.4, "unit": "µM"}, {"measurement": "TGI", "setting": "[5]", "result": 88.3, "unit": "µM"}, {"measurement": "GI50", "setting": "[6]", "result": 35.1, "unit": "µM"}, {"measurement": "TGI", "setting": "[6]", "result": "> 100", "unit": "µM"}, {"measurement": "GI50", "setting": "[7]", "result": 17.6, "unit": "µM"}, {"measurement": "TGI", "setting": "[7]", "result": 36.6, "unit": "µM"}, {"measurement": "GI50", "setting": "[8]", "result": 20.7, "unit": "µM"}, {"measurement": "TGI", "setting": "[8]", "result": 40.4, "unit": "µM"}, {"measurement": "GI50", "setting": "[9]", "result": 31.5, "unit": "µM"}, {"measurement": "TGI", "setting": "[9]", "result": 88, "unit": "µM"}, {"measurement": "GI50", "setting": "[10]", "result": 18.5, "unit": "µM"}, {"measurement": "TGI", "setting": "[10]", "result": 39.2, "unit": "µM"}]}
{"smiles": "COc1cc(/C=N/NC(=O)c2cnn3c2NC(c2ccccc2)C3)ccc1OCc1ccccc1", "note": "(stereo not drawn)", "values": [{"measurement": "GI50", "setting": "[1]", "result": 2.35, "unit": "µM"}, {"measurement": "TGI", "setting": "[1]", "result": 24.5, "unit": "µM"}, {"measurement": "GI50", "setting": "[2]", "result": 1.71, "unit": "µM"}, {"measurement": "TGI", "setting": "[2]", "result": 11.1, "unit": "µM"}, {"measurement": "GI50", "setting": "[3]", "result": 0.712, "unit": "µM"}, {"measurement": "TGI", "setting": "[3]", "result": "> 100", "unit": "µM"}, {"measurement": "GI50", "setting": "[4]", "result": 0.391, "unit": "µM"}, {"measurement": "TGI", "setting": "[4]", "result": 3.9, "unit": "µM"}, {"measurement": "GI50", "setting": "[5]", "result": 1.36, "unit": "µM"}, {"measurement": "TGI", "setting": "[5]", "result": 5.11, "unit": "µM"}, {"measurement": "GI50", "setting": "[6]", "result": 0.158, "unit": "µM"}, {"measurement": "TGI", "setting": "[6]", "result": 0.95, "unit": "µM"}, {"measurement": "GI50", "setting": "[7]", "result": 2.11, "unit": "µM"}, {"measurement": "TGI", "setting": "[7]", "result": 10.6, "unit": "µM"}, {"measurement": "GI50", "setting": "[8]", "result": 2.17, "unit": "µM"}, {"measurement": "TGI", "setting": "[8]", "result": 21.8, "unit": "µM"}, {"measurement": "GI50", "setting": "[9]", "result": 0.453, "unit": "µM"}, {"measurement": "TGI", "setting": "[9]", "result": 2.11, "unit": "µM"}, {"measurement": "GI50", "setting": "[10]", "result": 0.569, "unit": "µM"}, {"measurement": "TGI", "setting": "[10]", "result": 2.76, "unit": "µM"}]}
{"smiles": "Cc1ccc(C)c(N2CCN(c3ccncc3N)CC2)c1", "values": [{"measurement": "GI50", "setting": "[1]", "result": 15.7, "unit": "µM"}, {"measurement": "TGI", "setting": "[1]", "result": 31.8, "unit": "µM"}, {"measurement": "GI50", "setting": "[2]", "result": 21.9, "unit": "µM"}, {"measurement": "TGI", "setting": "[2]", "result": 73.5, "unit": "µM"}, {"measurement": "GI50", "setting": "[3]", "result": 21.5, "unit": "µM"}, {"measurement": "TGI", "setting": "[3]", "result": 94.3, "unit": "µM"}, {"measurement": "GI50", "setting": "[4]", "result": 9.97, "unit": "µM"}, {"measurement": "TGI", "setting": "[4]", "result": 26.7, "unit": "µM"}, {"measurement": "GI50", "setting": "[5]", "result": 19.6, "unit": "µM"}, {"measurement": "TGI", "setting": "[5]", "result": 40.8, "unit": "µM"}, {"measurement": "GI50", "setting": "[6]", "result": 14.9, "unit": "µM"}, {"measurement": "TGI", "setting": "[6]", "result": 36.3, "unit": "µM"}, {"measurement": "GI50", "setting": "[7]", "result": 22.1, "unit": "µM"}, {"measurement": "TGI", "setting": "[7]", "result": "> 100", "unit": "µM"}, {"measurement": "GI50", "setting": "[8]", "result": 17.2, "unit": "µM"}, {"measurement": "TGI", "setting": "[8]", "result": 67, "unit": "µM"}, {"measurement": "GI50", "setting": "[9]", "result": 11.1, "unit": "µM"}, {"measurement": "TGI", "setting": "[9]", "result": 38.5, "unit": "µM"}, {"measurement": "GI50", "setting": "[10]", "result": 5.13, "unit": "µM"}, {"measurement": "TGI", "setting": "[10]", "result": 24.6, "unit": "µM"}]}
